# Experiments:
# hPSCs = test: Cell death of hPSCs on Gsk3 inhibitor treatment in albumin-free medium; assay type: cell-based, human
# Description: hPSCs maintained on a Synthemax-coated surface in E8 or mTeSR1 medium were dissociated into single cells with Accutase® (Life Technologies) at 37° C. for 5 min and then seeded onto a Synthemax-coated cell culture dish at 100,000-200,000 cell/cm^2 in E8 supplemented with 5 μM ROCK inhibitor Y-27632 (Selleckchem)(day −2) for 24 hours. Cells were then cultured in E8, changed daily. […] At day 0 the cell density should be between 250,000 and 400,000 cells/cm^2. At day 3, half the medium was changed to fresh RPMI medium containing 2.5 μM IWP2 (Tocris). At day 5, the entire medium was changed with RPMI medium. Cells were maintained in the cardiomyocyte maintenance medium (CMM: RPMI supplemented with 10 μg/ml insulin (sigma) and 200 μg/ml L-Ascorbic acid 2-phosphate sesquimagnesium salt hydrate (sigma)) starting from day 7, with the medium changed every 2 days.
# [1] = test system: brachyury expression in ES03 hESCs; test: Brachyury expression (mesendoderm induction) by western blot and immunostaining; assay type: cell-based, human
# Description: Cells were fixed with 4% paraformaldehyde for 15 min at room temperature and then stained with primary and secondary antibodies (Table 3) in PBS plus 0.4% Triton X-100 and 5% non-fat dry milk (Bio-Rad). Nuclei were stained with Gold Anti-fade Reagent with DAPI (Invitrogen). An epifluorescence microscope (Leica DM IRB) with a QImaging® Retiga 4000R camera was used for imaging analysis. Cells were lysed in M-PER Mammalian Protein Extraction Reagent (Pierce) in the presence of Halt Protease and Phosphatase Inhibitor Cocktail (Pierce). Proteins were separated by 10% Tris-Glycine SDS/PAGE (Invitrogen) under denaturing conditions and transferred to a nitrocellulose membrane. After blocking with 5% dried milk in TBST, the membrane was incubated with primary antibody overnight at 4° C. The membrane was then washed, incubated with an anti-mouse/rabbit peroxidase-conjugated secondary antibody (Table 3) at room temperature for 1 hour, and developed by SuperSignal chemiluminescence (Pierce).
compound,measurement,setting,value
Cc1c[nH]c(-c2cnc(NCCNc3ccc(C#N)cn3)nc2-c2ccc(Cl)cc2Cl)n1 [CH],cell death,"hPSCs; 12 μM at day 0, by 24 hr, absence of BSA",prolific cell death
same,cell death,"hPSCs; same concentration of CH as Burridge et al., 2 days, albumin-free medium",substantial cell death
same,brachyury expression,"[1]; 6 μM CH, albumin-free RPMI, after 24 hr",induced robust brachyury expression
same,brachyury expression,"[1]; 30 μM CH, medium containing 1% HRA",induced brachyury expression
same,brachyury expression,"[1]; CH concentrations up to 6 μM, presence of 1% human recombinant albumin (HRA)",unable to induce brachyury expression

# — patent publication US9765299B2, “Chemically defined albumin-free conditions for cardiomyocyte differentiation of human pluripotent stem cells” (Wisconsin Alumni Research Foundation, priority 2014, dated 2017)
